Assay results from the supplement of paper PMC11451515.

System: NOMO1
Test: cell viability relative to DMSO control; higher = less cytotoxic
Details: 48 h
Procedure, shortened: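 Three leukemia lines were tested: NOMO1 and SEM at 500 cells/well and P12-Ichikawa at 1000 cells/well. Each was adapted for at least four passages in each medium and seeded in 5 μl in 1536-well plates, and library compounds in DMSO were pin-dosed from 47 μM to 0.79 nM in 11 threefold steps. After 48 h at 37°C, CellTiter-Glo One luminescence was read. Viability is a percentage relative to DMSO wells on each plate, with cell-free wells as background.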

[1] = HPLM + 10% dialyzed FBS, 0.000781 µM
[2] = HPLM + 10% dialyzed FBS, 0.00234 µM
[3] = HPLM + 10% dialyzed FBS, 0.00702 µM
[4] = HPLM + 10% dialyzed FBS, 0.0211 µM
[5] = HPLM + 10% dialyzed FBS, 0.0632 µM
[6] = HPLM + 10% dialyzed FBS, 0.19 µM
[7] = HPLM + 10% dialyzed FBS, 0.569 µM
[8] = HPLM + 10% dialyzed FBS, 1.71 µM
[9] = HPLM + 10% dialyzed FBS, 5.12 µM
[10] = HPLM + 10% dialyzed FBS, 15.4 µM
[11] = HPLM + 10% dialyzed FBS, 46.1 µM
[12] = RPMI 5 mM glucose + 10% FBS, 0.000781 µM
[13] = RPMI 5 mM glucose + 10% FBS, 0.00234 µM
[14] = RPMI 5 mM glucose + 10% FBS, 0.00702 µM
[15] = RPMI 5 mM glucose + 10% FBS, 0.0211 µM
[16] = RPMI 5 mM glucose + 10% FBS, 0.0632 µM
[17] = RPMI 5 mM glucose + 10% FBS, 0.19 µM
[18] = RPMI 5 mM glucose + 10% FBS, 0.569 µM
[19] = RPMI 5 mM glucose + 10% FBS, 1.71 µM
[20] = RPMI 5 mM glucose + 10% FBS, 5.12 µM
[21] = RPMI 5 mM glucose + 10% FBS, 15.4 µM
[22] = RPMI 5 mM glucose + 10% FBS, 46.1 µM
[23] = RPMI 5 mM glucose + 10% dialyzed FBS, 0.000781 µM
[24] = RPMI 5 mM glucose + 10% dialyzed FBS, 0.00234 µM
[25] = RPMI 5 mM glucose + 10% dialyzed FBS, 0.00702 µM
[26] = RPMI 5 mM glucose + 10% dialyzed FBS, 0.0211 µM
[27] = RPMI 5 mM glucose + 10% dialyzed FBS, 0.0632 µM
[28] = RPMI 5 mM glucose + 10% dialyzed FBS, 0.19 µM
[29] = RPMI 5 mM glucose + 10% dialyzed FBS, 0.569 µM
[30] = RPMI 5 mM glucose + 10% dialyzed FBS, 1.71 µM
[31] = RPMI 5 mM glucose + 10% dialyzed FBS, 5.12 µM
[32] = RPMI 5 mM glucose + 10% dialyzed FBS, 15.4 µM
[33] = RPMI 5 mM glucose + 10% dialyzed FBS, 46.1 µM

Compound `C[C@@H]1CN(Cc2ccc(F)cc2)[C@@H](C)CN1C(=O)c1cc2c(C(=O)C(=O)N(C)C)cn(C)c2cc1Cl` has a cell viability [1] of 103%, a cell viability [2] of 121% and a cell viability [3] of 118%. For the same compound, the cell viability [4] was 119%, the cell viability [5] was 129% and the cell viability [6] was 139%. It also gave a cell viability [7] of 139%, a cell viability [8] of 128% and a cell viability [9] of 131%. The cell viability [10] was 123%, the cell viability [11] was 74.8% and the cell viability [12] was 103%. The cell viability [13] was 122%, the cell viability [14] was 118% and the cell viability [15] was 120%. For the same compound, the cell viability [16] was 123%, the cell viability [17] was 124% and the cell viability [18] was 124%. The cell viability [19] was 108%, the cell viability [20] was 114% and the cell viability [21] was 115%. For the same compound, the cell viability [22] was 118%, the cell viability [23] was 125% and the cell viability [24] was 117%. It also gave a cell viability [25] of 115%, a cell viability [26] of 118% and a cell viability [27] of 128%. The cell viability [28] was 127%, the cell viability [29] was 124% and the cell viability [30] was 132%. It also gave a cell viability [31] of 119%, a cell viability [32] of 127% and a cell viability [33] of 111%.
Compound `CC(C)=CCC/C(C)=C/CC/C(C)=C/CSc1ccccc1C(=O)O` has a cell viability [1] of 93.2%, a cell viability [2] of 119% and a cell viability [3] of 104%. The cell viability [4] was 104%, the cell viability [5] was 116% and the cell viability [6] was 102%. For the same compound, the cell viability [7] was 90.4%, the cell viability [8] was 68.8% and the cell viability [9] was 76.4%. It also gave a cell viability [10] of 57.4%, a cell viability [11] of 29.8% and a cell viability [12] of 103%. For the same compound, the cell viability [14] was 104%, the cell viability [15] was 103% and the cell viability [16] was 96.1%. The cell viability [17] was 99.1%, the cell viability [18] was 96.2% and the cell viability [19] was 95.2%. It also gave a cell viability [20] of 86.8%, a cell viability [21] of 67.9% and a cell viability [22] of 43.5%. The cell viability [23] was 98.2%, the cell viability [24] was 103% and the cell viability [25] was 109%. The cell viability [26] was 106%, the cell viability [27] was 116% and the cell viability [28] was 97%. For the same compound, the cell viability [29] was 87%, the cell viability [30] was 77.1% and the cell viability [31] was 61.8%. For the same compound, the cell viability [32] was 64% and the cell viability [33] was 39.3%.
For `C/C(=N\NC(=S)N1CCC1)c1ccccn1`, the cell viability [1] was 104%, the cell viability [2] was 76.1% and the cell viability [3] was 48.5%. For the same compound, the cell viability [4] was 29.9%, the cell viability [5] was 20.8% and the cell viability [6] was 6.85%. The cell viability [7] was 5.67%, the cell viability [8] was 4.05% and the cell viability [9] was 2.98%. For the same compound, the cell viability [10] was 15.2%, the cell viability [11] was 5.74% and the cell viability [12] was 107%. It also gave a cell viability [13] of 96.5%, a cell viability [14] of 74.6% and a cell viability [15] of 15.3%. For the same compound, the cell viability [16] was 13%, the cell viability [17] was 7.95% and the cell viability [18] was 6.53%. It also gave a cell viability [19] of 8.3%, a cell viability [20] of 2.84% and a cell viability [21] of 13.7%. It also gave a cell viability [22] of 11.8%, a cell viability [23] of 99.3% and a cell viability [24] of 93.6%. The cell viability [25] was 37.7%, the cell viability [26] was 19.6% and the cell viability [27] was 17.9%. It also gave a cell viability [28] of 8.08%, a cell viability [29] of 6.69% and a cell viability [30] of 5.23%. The cell viability [31] was 2.95%, the cell viability [32] was 8.3% and the cell viability [33] was 13.1%.
Work on `C[C@]12Cc3cn[nH]c3C[C@@H]1CC[C@@H]1[C@@H]2CC[C@@]2(C)[C@H]1CC[C@]2(C)O` yielded a cell viability [12] of 97.1%, a cell viability [13] of 102% and a cell viability [14] of 100%. It also gave a cell viability [15] of 105%, a cell viability [16] of 106% and a cell viability [17] of 103%. It also gave a cell viability [18] of 109%, a cell viability [19] of 112% and a cell viability [20] of 100%. It also gave a cell viability [21] of 92.4%, a cell viability [22] of 90.7% and a cell viability [23] of 102%. It also gave a cell viability [24] of 119%, a cell viability [25] of 122% and a cell viability [26] of 120%. The cell viability [27] was 114%, the cell viability [28] was 105% and the cell viability [29] was 103%. The cell viability [30] was 92.8%, the cell viability [31] was 95.3% and the cell viability [32] was 109%. The cell viability [33] was 96.3%.
`O=C(CCCCCCC(=O)Nc1ccc([C@H]2O[C@@H](CSc3nc(-c4ccccc4)c(-c4ccccc4)o3)C[C@@H](c3ccc(CO)cc3)O2)cc1)NO` gave a cell viability [12] of 120%, a cell viability [13] of 135% and a cell viability [14] of 117%. For the same compound, the cell viability [15] was 124%, the cell viability [16] was 117% and the cell viability [17] was 131%. For the same compound, the cell viability [18] was 127%, the cell viability [19] was 111% and the cell viability [20] was 108%. For the same compound, the cell viability [21] was 12.5% and the cell viability [22] was 5.57%.
`c1ccc2c(Cc3c[nH]c4ccccc34)c[nH]c2c1` gave a cell viability [1] of 95%, a cell viability [2] of 106% and a cell viability [3] of 108%. For the same compound, the cell viability [4] was 93.6%, the cell viability [5] was 112% and the cell viability [6] was 112%. It also gave a cell viability [7] of 95.5%, a cell viability [8] of 89.7% and a cell viability [9] of 87.4%. The cell viability [10] was 80.4%, the cell viability [11] was 54% and the cell viability [12] was 89.8%. It also gave a cell viability [13] of 98.3%, a cell viability [14] of 87.8% and a cell viability [15] of 101%. The cell viability [16] was 97.7%, the cell viability [17] was 86.8% and the cell viability [18] was 96.1%. The cell viability [19] was 89.8%, the cell viability [20] was 85.2% and the cell viability [21] was 85.8%. The cell viability [22] was 78.9%, the cell viability [23] was 99% and the cell viability [24] was 92%. It also gave a cell viability [25] of 106%, a cell viability [26] of 104% and a cell viability [27] of 93.3%. The cell viability [28] was 97.7%, the cell viability [29] was 93.2% and the cell viability [30] was 94.2%. For the same compound, the cell viability [31] was 88.5%, the cell viability [32] was 84% and the cell viability [33] was 57.1%.
In the case of `Cc1nc2cc(C(=O)N3CCC4(CC3)CC(=O)c3c(cnn3C(C)C)C4)ccc2[nH]1`, the cell viability [1] is reported as 96.7%, the cell viability [2] is reported as 159% and the cell viability [3] is reported as 125%. For the same compound, the cell viability [4] was 124%, the cell viability [5] was 116% and the cell viability [6] was 135%. For the same compound, the cell viability [7] was 134%, the cell viability [8] was 119% and the cell viability [9] was 112%. For the same compound, the cell viability [10] was 135%, the cell viability [11] was 60.9% and the cell viability [12] was 118%. For the same compound, the cell viability [13] was 133%, the cell viability [14] was 116% and the cell viability [15] was 130%. It also gave a cell viability [16] of 129%, a cell viability [17] of 124% and a cell viability [18] of 123%. The cell viability [19] was 128%, the cell viability [20] was 135% and the cell viability [21] was 132%. The cell viability [22] was 94.2%.
With `Cc1nn(C)c(COc2ccc(N3CCN([S+](=O)([O-])N(C)C)CC3)cc2)c1-c1cccc2c(CCCOc3cccc4ccccc34)c(C(=O)O)n(CCN3CCOCC3)c12` the cell viability [1] was 96.9%, the cell viability [2] was 107% and the cell viability [3] was 121%. For the same compound, the cell viability [4] was 122%, the cell viability [5] was 124% and the cell viability [6] was 108%. It also gave a cell viability [7] of 137%, a cell viability [8] of 101% and a cell viability [9] of 25.9%. For the same compound, the cell viability [10] was 36.8%, the cell viability [11] was 32.1% and the cell viability [12] was 100%. The cell viability [13] was 110%, the cell viability [14] was 105% and the cell viability [15] was 110%. For the same compound, the cell viability [16] was 112%, the cell viability [17] was 105% and the cell viability [18] was 118%. The cell viability [19] was 111%, the cell viability [20] was 25.2% and the cell viability [21] was 108%. It also gave a cell viability [22] of 22.8%, a cell viability [23] of 90.6% and a cell viability [24] of 112%. It also gave a cell viability [25] of 110%, a cell viability [26] of 116% and a cell viability [27] of 122%. It also gave a cell viability [28] of 111%, a cell viability [29] of 117% and a cell viability [30] of 107%. The cell viability [31] was 109%, the cell viability [32] was 119% and the cell viability [33] was 91.8%.
